Results from ChEMBL document CHEMBL4342450, “Antitumor Activity of Ohmyungsamycin A through the Regulation of the Skp2-p27 Axis and MCM4 in Human Colorectal Cancer Cells” (J Nat Prod, 2020).
pIC50: −log10 of the molar value. Active and inactive are the calls of the source. No cut-off for these calls is given here. *1 amine or outer side, *2 acyl side, *3 side chain or, on linkers, in order; H or OH if unused. Where a SMILES comes first, the peptide text is derived from it. Bridges are numbered along the chain shown (N, C = ends). [ ]: non-standard residue; d: D form. Phe(3R-OH) = O=C([C@@H](N[*:1])[C@H](O[*:3])c1ccccc1)[*:2]; NMeTrp(4-OMe) = CN[C@@H](Cc1c[nH]c2cccc(OC)c12)C(=O)O; NMeT = CN[C@H](C(=O)O)[C@@H](C)O; NMeL = CN[C@@H](CC(C)C)C(=O)O; NMeV = CN[C@H](C(=O)O)C(C)C

Key:
SNU-638 = assay: Antiproliferative activity against human SNU638 cells after 72 hrs by sulforhodamine B assay; type: functional, cell-based; conditions: SNU-638, 72 h
MRC5 = assay: Antiproliferative activity against human MRC5 cells after 72 hrs by sulforhodamine B assay; type: cell-based; conditions: MRC5, 72 h
HCT-116 [1] = assay: Downregulation of MCM4 gene expression in human HCT116 cells assessed as fold change at 15 uM incubated for 24 hrs by cDNA microarray analysis relative to control; type: functional
HCT-116 [2] = assay: Downregulation of CCNE2 gene expression in human HCT116 cells assessed as fold change at 15 uM incubated for 24 hrs by cDNA microarray analysis relative to control; type: functional
HCT-116 [3] = assay: Downregulation of DSCC1 gene expression in human HCT116 cells assessed as fold change at 15 uM incubated for 24 hrs by cDNA microarray analysis relative to control; type: functional
HCT-116 [4] = assay: Downregulation of BMP4 gene expression in human HCT116 cells assessed as fold change at 15 uM incubated for 24 hrs by cDNA microarray analysis relative to control; type: functional
HCT-116 [5] = assay: Downregulation of CDCA7 gene expression in human HCT116 cells assessed as fold change at 15 uM incubated for 24 hrs by cDNA microarray analysis relative to control; type: functional
HCT-116 [6] = assay: Downregulation of CYP24A1 gene expression in human HCT116 cells assessed as fold change at 15 uM incubated for 24 hrs by cDNA microarray analysis relative to control; type: functional
HCT-116 [7] = assay: Downregulation of HIST1H2BM gene expression in human HCT116 cells assessed as fold change at 15 uM incubated for 24 hrs by cDNA microarray analysis relative to control; type: functional
HCT-116 [8] = assay: Downregulation of GINS2 gene expression in human HCT116 cells assessed as fold change at 15 uM incubated for 24 hrs by cDNA microarray analysis relative to control; type: functional
HCT-116 [9] = assay: Downregulation of FAM111B gene expression in human HCT116 cells assessed as fold change at 15 uM incubated for 24 hrs by cDNA microarray analysis relative to control; type: functional
HCT-116 [10] = assay: Downregulation of KITLG gene expression in human HCT116 cells assessed as fold change at 15 uM incubated for 24 hrs by cDNA microarray analysis relative to control; type: functional
HCT-116 [11] = assay: Downregulation of DKK1 gene expression in human HCT116 cells assessed as fold change at 15 uM incubated for 24 hrs by cDNA microarray analysis relative to control; type: functional
HCT-116 [12] = assay: Induction of cell cycle arrest in human HCT116 cells assessed as accumulation at G2/M phase at 10 uM incubated for 18 hrs by propidium iodide staining based flow cytometry (reference value: 25.1%); type: functional
HCT-116 [13] = assay: Induction of cell cycle arrest in human HCT116 cells assessed as accumulation at sub-G1 phase at 10 uM incubated for 18 hrs by propidium iodide staining based flow cytometry (reference value: 0.9%); type: functional
HCT-116 [14] = assay: Induction of cell cycle arrest in human HCT116 cells assessed as accumulation at G0/G1 phase at 20 uM incubated for 18 hrs by propidium iodide staining based flow cytometry (reference value: 43.3%); type: functional
HCT-116 [15] = assay: Induction of cell cycle arrest in human HCT116 cells assessed as accumulation at S phase at 20 uM incubated for 18 hrs by propidium iodide staining based flow cytometry (reference value: 26.8%); type: functional
HCT-116 [16] = assay: Induction of cell cycle arrest in human HCT116 cells assessed as accumulation at G2/M phase at 20 uM incubated for 18 hrs by propidium iodide staining based flow cytometry (reference value: 25.1%); type: functional
HCT-116 [17] = assay: Induction of cell cycle arrest in human HCT116 cells assessed as accumulation at sub-G1 phase at 20 uM incubated for 18 hrs by propidium iodide staining based flow cytometry (reference value: 0.9%); type: functional
HCT-116 [18] = assay: Decrease in cell cycle associated protein expression in human HCT116 cells assessed as reduction in cyclin D1 expression at 5 to 20 uM after 24 hrs by Western blot analysis; type: functional, cell-based
HCT-116 [19] = assay: Downregulation of cyclin E2 mRNA expression in human HCT116 cells after 12 hrs by RT-PCR method; type: functional, cell-based
HCT-116 [20] = assay: Effect on Skp1 expression in human HCT116 cells at 5 to 20 uM after 24 hrs by Western blot analysis; type: functional, cell-based
HCT-116 [21] = assay: Induction of cell cycle arrest in human HCT116 cells assessed as accumulation at G0/G1 phase at 5 uM incubated for 24 hrs by propidium iodide staining based flow cytometry (reference value: 54.7%); type: functional
HCT-116 [22] = assay: Induction of cell cycle arrest in human HCT116 cells assessed as accumulation at G2/M phase at 5 uM incubated for 24 hrs by propidium iodide staining based flow cytometry (reference value: 15.7%); type: functional
HCT-116 [23] = assay: Induction of cell cycle arrest in human HCT116 cells assessed as accumulation at G0/G1 phase at 10 uM incubated for 24 hrs by propidium iodide staining based flow cytometry (reference value: 54.7%); type: functional
HCT-116 [24] = assay: Induction of cell cycle arrest in human HCT116 cells assessed as accumulation at sub-G1 phase at 10 uM incubated for 24 hrs by propidium iodide staining based flow cytometry (reference value: 4.8%); type: functional
HCT-116 [25] = assay: Induction of cell cycle arrest in human HCT116 cells assessed as accumulation at S phase at 20 uM incubated for 24 hrs by propidium iodide staining based flow cytometry (reference value: 21.2%); type: functional
HCT-116 [26] = assay: Induction of cell cycle arrest in human HCT116 cells assessed as accumulation at G2/M phase at 20 uM incubated for 24 hrs by propidium iodide staining based flow cytometry (reference value: 15.7%); type: functional
HCT-116 [27] = assay: Induction of apoptosis in human HCT116 cells assessed as increase in cleaved caspase 7 level after 24 hrs by Western blot analysis; type: functional, cell-based
HCT-116 [28] = assay: Induction of apoptosis in human HCT116 cells assessed as reduction in Bid level at 5 to 20 uM after 24 hrs by Western blot analysis; type: functional, cell-based
HCT-116 [29] = assay: Induction of apoptosis in human HCT116 cells assessed as reduction in survivin level at 5 to 20 uM after 24 hrs by Western blot analysis; type: functional, cell-based
[30] = Toxicity in BALB/c nude mouse assessed as changes in body weight at 5 to 10 mg/kg, ip administered thrice a week for 3.5 weeks; type: organism-based; conditions: in vivo, 588 h
Mus musculus [31] = assay: In vivo modulation of Skp2-p27 axis in tumor of BALB/c nude mouse xenografted with human HCT116 cells assessed as downregulation of Skp2 level at 5 to 10 m/kg, ip administered thrice a week for 3.5 weeks by Western blot analysis; type: functional, organism-based
Mus musculus [32] = assay: In vivo modulation of MCM4 in tumor of BALB/c nude mouse xenografted with human HCT116 cells assessed as downregulation of MCM4 level at 5 to 10 m/kg, ip administered thrice a week for 3.5 weeks by Western blot analysis; type: functional, organism-based
Mus musculus [33] = assay: In vivo modulation of Skp2-p27 axis in tumor of BALB/c nude mouse xenografted with human HCT116 cells assessed as upregulation of p27 level at 5 to 10 m/kg, ip administered thrice a week for 3.5 weeks by Western blot analysis; type: functional, organism-based

CN[C@H](C(=O)N[C@H](C(=O)N[C@@H]1C(=O)N(C)[C@@H]([C@@H](C)O)C(=O)N[C@@H](C(C)C)C(=O)N(C)[C@@H](CC(C)C)C(=O)N[C@@H](C(C)C)C(=O)N(C)[C@@H](C(C)C)C(=O)N(C)[C@@H](Cc2c[nH]c3cccc(OC)c23)C(=O)N[C@@H](C(C)C)C(=O)N[C@@H]([C@H](O)c2ccccc2)C(=O)N[C@@H](C(C)C)C(=O)O[C@@H]1C)C(C)C)C(C)C (H-[NMeV]VT[NMeT]V[NMeL]V[NMeV][NMeTrp(4-OMe)]V[Phe(3R-OH)]V; ester 3-C)
pIC50 (SNU-638): 5.03
pIC50 (MRC5): < 4.30
fold change (FC) (HCT-116 [1]): 6.074
fold change (FC) (HCT-116 [2]): 4.613
fold change (FC) (HCT-116 [3]): 4.856
fold change (FC) (HCT-116 [4]): 4.773
fold change (FC) (HCT-116 [5]): 4.702
fold change (FC) (HCT-116 [6]): 18.5
fold change (FC) (HCT-116 [7]): 7.527
fold change (FC) (HCT-116 [8]): 7.45
fold change (FC) (HCT-116 [9]): 7.557
fold change (FC) (HCT-116 [10]): 4.177
fold change (FC) (HCT-116 [11]): 4.144
Activity (HCT-116 [12]): 15.4%
Activity (HCT-116 [13]): 1.8%
Activity (HCT-116 [14]): 55.4%
Activity (HCT-116 [15]): 16%
Activity (HCT-116 [16]): 16.9%
Activity (HCT-116 [17]): 7.1%
inhibition (HCT-116 [18]): Active
inhibition (HCT-116 [19]): Dose-dependent effect
Activity (HCT-116 [20]): inactive
Activity (HCT-116 [21]): 60.9%
Activity (HCT-116 [22]): 12.5%
Activity (HCT-116 [23]): 62.7%
Activity (HCT-116 [24]): 14.7%
Activity (HCT-116 [25]): 24.1%
Activity (HCT-116 [26]): 10.8%
Activity (HCT-116 [27]): Dose-dependent effect
Activity (HCT-116 [28]): Active
Activity (HCT-116 [29]): Active
Activity [30]: Non-Toxic
inhibition (Mus musculus [31]): Active
inhibition (Mus musculus [32]): Active
Activity (Mus musculus [33]): Active
